Experimental findings from US20070225253A1, “Use of a trioxopyrimidine for the treatment and prevention of bronchial inflammatory diseases” (priority 2004, published 2007) are described below.

Test [1] deals with allergen-induced airway inflammation. Description: Mouse model of asthma (OVA), inhalation, long-term exposure challenge (11 weeks). Type of test: in vivo, mice. As to conditions: aerosol, long term allergen exposure (11 weeks). The method, then: In order to study the modulation of airway inflammation by intraperitoneal injection of Compound I, mice were sensitized with 10 μg ovalbumin alumin-adsorbed (aluminject, perbio, Erembodegem, Belgium) injected intraperitonealy at days 0 and 7 and were subsequently exposed to OVA 1% or PBS aerosols for 30 minutes from day 21 to 24. Intraperitoneal injections were performed 30 min before OVA inhalations. The different injected formulations were: cremophor 10%-DMSO 10%-PBS 80%- Compound I30 mg/kg (suspension); cremophor 10%-DMSO 10%-PBS 80%- Compound I3.75 mg/kg (solution); HPβCD 200 mM Compound I 7.5 mg/kg (solution); HPβCD 200 mM. All results were compared to mice sensitized and exposed to PBS and OVA treated with PBS injected intraperitonealy. In order to study the modulation of airway inflammation by inhaled Compound I, mice were sensitized as described previously. Two protocols referred to as short exposure challenge and long-term exposure challenge were used. In the short exposure challenge, mice were exposed to aerosols of Compound I-complex at concentrations of 0.03 and 0.3 mg/ml of active compound in aqueous solution of from day 21 to 27 during 30 min in a Plexiglas exposure chamber (30×20×15 cm). Mice were exposed to OVA aerosols 30 minutes after the Compound I inhalation from day 23 to 27. […]
Twenty-four hours after the last allergen exposure, the bronchial hyper responsiveness was determined by measuring the Penh using a barometric plethysmograph as proposed by Hamelmann, E., et al., Am. […] The Penh was measured at baseline and 5 min after the inhalation of increasing doses (25, 50, 75 and 100 mM) of methacholine (Mch).
Immediately after the assessment of airway responsiveness, mice were sacrificed and 1 ml of PBS free of ionised calcium and magnesium but supplemented with 0.05 mM sodium EDTA was instilled 4 times via a tracheal cannula and recovered by gentle manual aspiration. […] A value from 0 to 3 per criteria was adjudged to each tissue section scored. […]

Test [2] relates to allergen-induced airway inflammation and bronchial hyperresponsiveness. Description: Mouse model of asthma (OVA), inhalation, short exposure challenge. Format: in vivo, mice. The settings on record: aerosol, short-term exposure; Compound I 0.03 and 0.3 mg/ml, fluticasone 1 mg/ml; vs placebo, p<0.0001. The procedure: In order to study the modulation of airway inflammation by intraperitoneal injection of Compound I, mice were sensitized with 10 μg ovalbumin alumin-adsorbed (aluminject, perbio, Erembodegem, Belgium) injected intraperitonealy at days 0 and 7 and were subsequently exposed to OVA 1% or PBS aerosols for 30 minutes from day 21 to 24. Intraperitoneal injections were performed 30 min before OVA inhalations. The different injected formulations were: cremophor 10%-DMSO 10%-PBS 80%- Compound I30 mg/kg (suspension); cremophor 10%-DMSO 10%-PBS 80%- Compound I3.75 mg/kg (solution); HPβCD 200 mM Compound I 7.5 mg/kg (solution); HPβCD 200 mM. All results were compared to mice sensitized and exposed to PBS and OVA treated with PBS injected intraperitonealy. In order to study the modulation of airway inflammation by inhaled Compound I, mice were sensitized as described previously. Two protocols referred to as short exposure challenge and long-term exposure challenge were used. In the short exposure challenge, mice were exposed to aerosols of Compound I-complex at concentrations of 0.03 and 0.3 mg/ml of active compound in aqueous solution of from day 21 to 27 during 30 min in a Plexiglas exposure chamber (30×20×15 cm). Mice were exposed to OVA aerosols 30 minutes after the Compound I inhalation from day 23 to 27. In the so called long-term inhalation challenge, mice were exposed to aerosols of Compound Iat concentrations of 0.03 and 0.3 mg/ml complexed with HPβCD in an aqueous solution during 30 min five days odd weeks and to OVA aerosols 3 days odd weeks for 11 weeks. No inhalations were performed during even weeks.
The aerosol were produced by using an ultrasonic nebuliser SYSTAM (Systeme Assistance Medical, Le Ledat, France), the vibration frequency of which is 2.4 MHz with variable vibration intensity and ventilation levels. Vibration intensity was fixed in position 6 and the ventilation level was 25(ν1/2)1/min.
Twenty-four hours after the last allergen exposure, the bronchial hyper responsiveness was determined by measuring the Penh using a barometric plethysmograph as proposed by Hamelmann, E., et al., Am. J Respir. Crit. Care Med. 156 (1997) 766-775). The Penh was measured at baseline and 5 min after the inhalation of increasing doses (25, 50, 75 and 100 mM) of methacholine (Mch).
Immediately after the assessment of airway responsiveness, mice were sacrificed and 1 ml of PBS free of ionised calcium and magnesium but supplemented with 0.05 mM sodium EDTA was instilled 4 times via a tracheal cannula and recovered by gentle manual aspiration. The recovered bronchoalveolar lavage fluid (BAL) was centrifuged (1800 rpm for 10 min at 4° C.). […] A value from 0 to 3 per criteria was adjudged to each tissue section scored. […]

Another test concerns the target Human MMP-14 (Homo sapiens, UniProt P50281). Description: MMP enzymatic activity, modified fluorescence assay (DNP-substrate). The settings on record: read-out: IC50 MMP-14. Type of test: biochemical. The method, then:
(§1) IC50 values are measured by an in vitro assay for MMP enzymatic activity. Such an assay is described by Stack, M. S., and Gray, R. D., J. Biol. Chem. 264 (1989) 4277-4281. This assay is based on the determination of MMP enzymatic activity on a dinitrophenol substrate and fluorescence measurement of the substrate after cleaving by MMPs.
(§2) Inhibitors were tested in a modified fluorescence-assay as described by Stack, M. S., and Gray, R. D., J. Biol. Chem. 264 (1989) 4277-4281. Human MMP-1, MMP-2, MMP-3, MMP-9 and MMP-14 are commercially available (e.g. Calbiochem). The pro-enzymes were activated with 1 mM APMA (incubation for 30 min at 37° C.) immediately before testing. Activated enzyme is diluted to 100 ng/ml in incubation buffer (50 mM Tris, 100 mM NaCl, 10 mM CaCl2, pH 7.6). The compounds were dissolved in 100% DMSO. […] DNP-substrate (Bachem M1855, 255 μM) was dissolved in incubation buffer.
(§3) The test tube contains 970 μl incubation buffer, 10 μl inhibitor solution and 10 μl enzyme solution. The reaction was started by adding the 10 μl substrate solution.
(§4) Kinetics of activity were determined using excitation at 280 nm and emission at 346 nm measured on a FluoroMax™ (Spex Industries Inc., Edison, N.J., USA) over 120 sec. DMSO has been used as control instead of inhibitor solution.
(§5) IC50's are defined as the concentration of inhibitor that gives a signal that is 50% of the positive enzyme control.

For the next test, the target named is Human MMP-9 (Homo sapiens, UniProt P14780). Described as above. Format: biochemical. The settings on record: read-out: IC50 MMP-9. The procedure:
as §1, §2, §3, §4, §5

Human MMP-9, sequence (P14780 107-707 limits assumed): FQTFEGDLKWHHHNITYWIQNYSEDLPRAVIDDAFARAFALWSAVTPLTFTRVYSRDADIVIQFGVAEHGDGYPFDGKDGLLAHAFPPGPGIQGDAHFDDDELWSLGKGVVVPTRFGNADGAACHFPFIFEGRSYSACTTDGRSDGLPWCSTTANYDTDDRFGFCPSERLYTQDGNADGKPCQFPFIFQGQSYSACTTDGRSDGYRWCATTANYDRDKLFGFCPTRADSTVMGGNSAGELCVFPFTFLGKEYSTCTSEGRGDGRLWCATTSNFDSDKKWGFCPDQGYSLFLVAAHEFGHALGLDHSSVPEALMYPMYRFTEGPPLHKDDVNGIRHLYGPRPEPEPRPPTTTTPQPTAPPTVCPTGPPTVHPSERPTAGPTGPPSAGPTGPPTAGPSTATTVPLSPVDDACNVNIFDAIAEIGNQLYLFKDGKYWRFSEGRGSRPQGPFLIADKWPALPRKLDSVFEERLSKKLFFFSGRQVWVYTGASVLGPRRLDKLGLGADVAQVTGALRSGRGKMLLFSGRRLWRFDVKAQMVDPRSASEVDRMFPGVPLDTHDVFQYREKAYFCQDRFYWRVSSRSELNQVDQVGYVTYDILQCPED

As for `CCC(=O)O[C@]1(C(=O)SCF)[C@H](C)C[C@H]2[C@@H]3C[C@H](F)C4=CC(=O)C=C[C@]4(C)[C@@]3(F)[C@@H](O)C[C@@]21C`, the peribronchial inflammation score entry in test [1] (p<0.0001) is reported as “significantly decreased”. Also, the BAL eosinophilia result in test [1] (p<0.001) is recorded as “significantly decreased”. Also, the “tissue eosinophil infiltration score” value in test [1] (p<0.01) is reported as “decreased”. The “eosinophilic inflammation in BAL” value in test [2] is reported as “significant decrease”.
For `CNC(=O)[C@H](Cc1ccccc1)NC(=O)[C@H](CC(C)C)[C@H](CSc1cccs1)C(=O)NO` [Batimastat, reference compound], the values for the IC50 at Human MMP-14 and at Human MMP-9 were 19 nM and 23 nM, respectively.
